“Also recorded” adds a separate entry of the source. Like-named read-outs stand apart in the source and are kept apart here.
Key:
human PMNs = type: cell-based
Method: A comprehensive human immune assay was established using the XCelligence in vitro impedance system that obtains real-time kinetics of target cell killing. (ACEA BioSciences, San Diego, Calif., Catalog No. 00380601040). Wild-type (wt) and engineered iPSCs were differentiated into endothelial cells for this assay. […] Some experimental groups were treated with IL-2 (1 ng/ml), which is a central cytokine involved in allograft rejection. The assays were run for a duration of 90 h which is the maximum time period iECs can be cultured in this system before the monolayer breaks down spontaneously.
The immune system not only distinguishes between “self” and “non-self”, but also reacts to “danger” signals: released by autologous cells in distress. Matzinger, Ann. Rev. Immunol. 12:991-1045 (1994), incorporated by reference herein in its entirety. Intracellular components, released by damaged cells, can act as adjuvants and boost immune activation to alarm the immune system of cell death. Because apoptosis activates programmed cell death pathways aimed at digesting intracellular proteins, apoptotic cells are considered weak releasers of danger signals. […] For our in vitro assays, 20,000 target cells were sonicated to disrupt their cell membrane and release DAMPs and the cell debris was added to prior grown and confluent target iEC layer in Xcelligence assays.
Thus, for DAMP-activated XCelligence assays, iECs were plated and in addition to the immune effector cells, 20,000 sonicated target cells were added at the same time. […]
Ligands for CD200R and PIRLα are CD200 and CD99, respectively. Recombinant human CD200 Fc chimera proteins (R&D Systems, Minneapolis, Minn., Catalog no. 2724-CD-050) and CD99 Fc chimera proteins (R&D Systems, Minneapolis, Minn., Catalog no. 3968-CD-050) engage these receptors. These Fc chimera proteins were added to the assays at 10 μg/ml. There is no known ligand for SIRL-1 but there is an activating monoclonal SIRL-1 antibody to trigger downstream inhibitory signaling (Steevels T A., Eur J. Immunol. 43(5):1297-308 (2013)). The human PMNs were activated via DAMPs or IL-2 and the killing of human wt and HIP iECs was assessed (FIG. 8).
BAY 85-8501 was used at 1 nM or 1 μM concentrations. The effector PMNs were stimulated with sonicated cells or IL-2.
Activating receptors include the family of toll-like receptors (TLRs) that are activated by a wide range of ligands including DAMPs. PMN activation pathways were inhibited by TAK-242 (MedChem Express, Monmouth Junction, N.J., Catalog No. HY-11109, 10 μM for in vitro Xcelligence assays), a small-molecule inhibitor of TLR-4-mediated signaling. Wild-type and HIP cells were used on the XCelligence platform using PMNs as effector cells (FIG. 13). Necrotic cells or IL-2 were used as PMN stimulators.

[1] = in mice; cited from earlier work
[2] = 10 μM, DAMP- or IL-2 activated PMNs
[3] = PMNs activated via DAMPs (necrotic/sonicated cells), Fc chimera proteins 10 μg/ml
[4] = PMNs stimulated with IL-2, Fc chimera proteins 10 μg/ml

For `COc1cc(C(C)=O)ccc1O` [Apocynin], the “PMN killing of wt and HIP iECs” value (human PMNs; [2]) was “diminished”.

In the case of `CC1=C(C#N)[C@@H](c2ccc(C#N)cc2S(C)(=O)=O)N(C)C(=O)N1c1cccc(C(F)(F)F)c1` [BAY 85-8501], the “PMN killing of wt or HIP target cells” value (human PMNs; 1 nM, compared with 1 μM) is reported as “less effective”, the “PMN killing of wt or HIP target cells” value (human PMNs; 1 μM, PMNs activated via DAMPs from sonicated cells) is reported as “fully prevented” and the “PMN killing of wt or HIP target cells” value (human PMNs; 1 μM, in the presence of IL-2) is reported as “further delayed the target cell killing”.

With `CC[C@H](Nc1ncnc2[nH]cnc12)c1nc2cccc(F)c2c(=O)n1-c1ccccc1` [Idelalisib] the “PMN killing of wt and HIP iECs” value (human PMNs; [2]) was “mildly diminished PMN killing”.

For `CCOC(=O)C1=CCCC[C@H]1S(=O)(=O)Nc1ccc(F)cc1Cl` [TAK-242], the “PMN killing of wt and HIP iECs, efficacy by stimulator” value (human PMNs; 10 μM, DAMPs compared with IL-2) was “stronger”, the “PMN killing of wt and HIP iECs” value (human PMNs; 10 μM, IL-2) was “still markedly reduced” and the “PMN killing of wt and HIP iECs” value (human PMNs; 10 μM, necrotic cells (DAMPs) or IL-2 as PMN stimulators) was “diminished PMN killing”.

For `COc1cc2c(c(OC)c1OC)-c1ccc(OC)c(=O)cc1[C@@H](NC(C)=O)CC2` [colchicine], the “PMN killing of wt and HIP iECs” value (human PMNs; 1 μM monotherapy, DAMP or IL-2 activated PMNs) was “mild inhibitor; also recorded: only marginal efficacy”.

For “A1AT: Alpha-1 antitrypsin, Neutrophil Elastase inhibitor (Sigma-Aldrich A9024)”, the “PMN killing of wt and HIP iECs” value (human PMNs; 30 μM recombinant A1AT) is listed as “minorly effective; also recorded: some minor activity against PMN killing” and the “Half-life of A1AT” value [1] is listed as “approx. 4.5 days”.

B1: CD99 Fc chimera: Recombinant CD99 Fc chimera protein (R&D Systems 3968-CD-050), ligand for PIRLα (protein)
chain: DGGFDLSDALPDNENKKPTAIPKKPSAGDDFDLGDAVVDGENDDPRPPNPPKPMPNPNPNHPSSSGSFSDADLADGVSGGEGKGGSDGGGSHRKEGEEAD
modifications: left off: a dimerising Fc or GST
notes: Recombinant CD99 Fc chimera protein (R&D Systems 3968-CD-050), ligand for PIRLα
For B1, the “PMN killing of wt and HIP iECs” value (human PMNs; [3]) was “prevented PMN killing”, the “PMN killing of wt and HIP iECs” value (human PMNs; [4]) was “somewhat delayed” and the “PMN killing of wt and HIP iECs” value (human PMNs; PMNs stimulated with IL-2, Fc chimera proteins 10 μg/ml, listed as CD99) was “delayed but not prevented”.

B2: CD200 Fc chimera: Recombinant human CD200 Fc chimera protein (R&D Systems 2724-CD-050), ligand for CD200R (protein)
chain: QVQVVTQDEREQLYTPASLKCSLQNAQEALIVTWQKKKAVSPENMVTFSENHGVVIQPAYKDKINITQLGLQNSTITFWNITLEDEGCYMCLFNTFGFGKISGTACLTVYVQPIVSLHYKFSEDHLNITCSATARPAPMVFWKVPRSGIENSTVTLSHPNGTTSVTSILHIKDPKNQVGKEVICQVLHLGTVTDFKQTVNKG
modifications: left off: a dimerising Fc or GST
notes: Recombinant human CD200 Fc chimera protein (R&D Systems 2724-CD-050), ligand for CD200R
For B2, the “PMN killing of wt and HIP iECs” value (human PMNs; [3]) was “prevented PMN killing”, the “PMN killing of wt and HIP iECs” value (human PMNs; [4]) was “somewhat delayed” and the “PMN killing of wt and HIP iECs” value (human PMNs; PMNs stimulated with IL-2, Fc chimera proteins 10 μg/ml, listed as recombinant CD200) was “delayed but not prevented”.
